Source: PubChem BioAssay (NCI)
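Compound exposure: 48 hours, 5 concentrations, 96-well plates. Here, GI50 denotes the concentration required for 50% inhibition of growth. The concentration for full growth arrest is given as TGI.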 Residues, ends and D or L forms follow the SMILES beside them. *: point of attachment. Cbz = O=C(OCc1ccccc1)*

What was measured:
Assay in all cases: NCI anticancer screen, dose series, 48 h
[1] = test system: MCF7 breast
[2] = test system: CCRF-CEM leukemia
[3] = test system: SK-MEL-28 melanoma
[4] = test system: SF-539 CNS
[5] = test system: SF-295 CNS
[6] = test system: HT29 colon
[7] = test system: 786-0 renal
[8] = test system: RPMI-8226 leukemia
[9] = test system: OVCAR-4 ovarian
[10] = test system: HOP-62 NSCLC

SMILES	GI50 [1] [nM]	GI50 [2] [nM]	TGI [2] [µM]	GI50 [3] [µM]	TGI [3] [µM]	GI50 [4] [nM]	TGI [4] [µM]	GI50 [5] [µM]	TGI [5] [µM]	GI50 [6] [µM]	TGI [6] [µM]	GI50 [7] [µM]	TGI [7] [µM]	GI50 [8] [µM]	TGI [8] [µM]	GI50 [9] [µM]	TGI [9] [µM]	GI50 [10] [µM]	TGI [10] [µM]	TGI [1] [µM]
CN(C)Cc1c(C(=O)NCCOc2ccc(C(=O)NO)cc2)oc2ccccc12	261	135	25.8	0.267	2.5	385	18	0.225	0.713	0.205	1.36	0.405	9.16	0.138	0.662	0.269	> 71.3	0.247	12.1	–
O=[N+]([O-])c1oc2ccc3ccccc3c2c1CCO	–	–	39.9	–	3.27	–	13.4	–	7.04	–	25.7	–	> 50	–	22.2	–	17.3	–	> 67.1	29.5
O=C(O)Cc1ccc(N=Nc2c(O)c(C(=O)O)cc3ccccc23)cc1	–	–	> 100	–	> 100	–	> 100	–	> 100	–	> 100	–	> 100	–	> 100	–	> 100	–	> 100	> 100
COc1ccc(-c2cn(-c3cc(OC)c(OC)c(OC)c3)c(=O)[nH]2)cc1OC	> 100000	> 100000	> 100	> 100	> 100	> 100000	> 100	> 100	> 100	> 100	> 100	> 100	> 100	> 100	> 100	> 100	> 100	> 100	> 100	> 100
Cc1ccsc1-c1ccc2c(c1)COC2(CCCN(C)C)c1ccc(F)cc1 (centres undefined)	1740	2730	8.56	1.76	3.33	1800	3.4	1.77	3.58	2.29	8.45	2.54	7.97	2.12	4.88	3.27	13	3.16	12.8	3.67
CNC(=O)c1cccc(C#Cc2cncnc2Nc2ccc(OCc3cccc(F)c3)c(Cl)c2)c1	4610	> 25000	> 25	5.82	> 17.7	4390	9.69	5.45	20.5	8.64	> 25	6.33	> 25	14	> 25	4.23	12.3	5.03	10.4	12.5
CC(C)C(=O)c1c(C(F)(F)F)n([O-])c2ccccc2[n+]1=O	731	1570	9.83	9.06	25.1	1810	5.17	0.553	2	9.43	> 36.4	1.65	3.73	0.178	1.31	4.47	18.8	1.78	3.49	6.06
Cc1ccccc1C(C(=O)NC1CCCCC1)N(C(=O)CNc1ncccc1F)c1cccc(F)c1 (centres undefined)	> 100000	> 100000	> 100	> 100	> 100	22700	81.7	20.6	> 76.8	> 100	> 100	32.8	> 100	> 100	> 100	> 23.6	> 100	14.8	> 64.3	> 100
CCCN(CCC)c1ccc(C=O)c(C)c1	40800	46800	> 100	68.2	> 100	> 70500	> 100	29.1	> 100	33.5	> 100	43.9	> 100	69.4	> 100	21.5	> 100	98.1	> 100	> 100
Cc1sc2c(c1C)C(c1ccc(Cl)cc1)=N[C@@H](CC(=O)NCCCN1CCN(C)CC1)c1nnc(C)n1-2	56.4	1600	> 100	> 30	> 100	607	> 100	8.12	> 100	0.198	> 100	5.48	> 100	0.0417	5.38	0.748	> 100	0.352	> 100	> 100
OCC1CCCC1O (centres undefined)	–	–	> 100	–	> 100	–	> 100	–	> 100	–	> 100	–	> 100	–	> 100	–	> 100	–	–	> 100
C=CCOC(=O)Nc1cccn([C@H](CC(C)C)C(=O)NCCC(C)C)c1=O	99400	26800	90.3	> 100	> 100	> 100000	> 100	18.7	> 100	> 100	> 100	> 100	> 100	22.7	> 100	28.1	> 100	> 100	> 100	> 100
Cn1cc(C2=C(c3cn(CCCCCO)c4ccccc34)C(=O)NC2=O)c2ccccc21	3560	3010	> 16.6	4.92	15.7	3160	8.55	4.5	13.9	3.31	13.9	5.81	> 21.5	6.6	18.4	5.11	17.5	5.92	15.6	> 22.5
CC(C)C[C@@H](C=O)NC(=O)[C@H](CC(C)C)NC(=O)[C@H](CC(C)C)NC(=O)OCc1ccccc1 (Cbz-Leu-Leu-Leu-aldehyde)	422	378	64.2	0.419	11.6	256	0.703	0.39	1.77	0.268	0.647	0.349	1.4	0.356	13.8	–	–	–	–	14
